Results published in patent publication US8084621B2, “3-Pyrrolo[b]cyclohexylene-2-dihydroindolinone derivatives and uses thereof” (Jiangsu Simcere Pharmaceutical R&D Co. Ltd., priority 2006, dated 2011).
pIC50: −log10 of the molar value.

What was measured:
Assay type in all cases: cell-based
[1] = test system: Human Gastric Cancer Cell Line (BGC); assay: Tumor cell proliferation assay (MTT), BGC; conditions: for inhibition at 10 µM: concentration of 10^−5 mol/L, preliminary screening, 72 hours, read-out: Inhibition rate % BGC; for pIC50: secondary screening, 48 hours
Description: (§1) The assay used generally is the blue tetrazolium bromide (MTT) method. […] The amount of formazan can be detected by the microplate reader through the absorption value at 570 nm. The amount of formazan product generated is proportional to the number of living cells in the sample, so the OD value may reflect the number of living cells and the ability of a test drug to inhibit or kill cells. The MTT assay may be used in determining the ability of different compounds of the present invention to inhibit one or more cancer cells proliferation. Similar assays can be designed along the same lines for any cancer cell using techniques well known in the art.
(§2) The assay used generally is the blue tetrazolium bromide (MTT) method. […] Intracellular purple formazan salt crystals can be solved in DMSO and the absorption value at 570 nm is detected by the microplate reader, then the number of living cells can be detected indirectly. So MTT assay may be used to determine the ability of a compound of the present invention to inhibit cell proliferation. Similar assays can be designed along the same lines for any cancer cell using techniques well known in the art.
2.2.1 Human Gastric Cancer Cell Line (BGC)
The cells of the 2.2.1, 2.2.2, 2.2.3, 2.2.4, 2.2.5 cultured with RPMI 1640 containing 12% calf serum in the condition of 37° C., 5% CO2.
(§3) 2.3.1 Cell seeding: Trypsinize the cell by 0.05% trypsin-EDTA and add RPMI 1640 medium (DMEM or 5A) containing 12% calf serum. Count the number, then dilute to 1.67×10^4/ml. Add 180 ul/well to the 96 well plate (3000 cells/well).
(§4) 2.3.2 Culture: cells are incubated for 24 hours at 37° C. under 5% CO2.
(§5) 2.3.3 Preliminary screening: The compounds are firstly diluted to 0.1 mol/L with DMSO, and then diluted to three concentrations of 10^−5 mol/L, 10^−6 mol/L and 10^−7 mol/L. Add 20 ul test compounds to the 96 well plate and incubate for 72 hours. Each group has three parallel wells and all experiments repeat three times. Each inhibition ratio is calculated, then an average value of three times is taken as the measured value. 2.3.4 Staining 2.3.4.1 Attached cell: add 20 ul/well MTT to the 96-well plates; incubate for 4 hours in the incubator. Pour out the culture medium in the well and add 100 ul/well DMSO. Shake the plate for 5 min. 2.3.4.2 Suspension cell: add 20 ul/well MTT to the 96-well plates; incubate for 4 hours in the incubator. Add 50 ul/well 20% SDS and incubate for overnight in the incubator. 2.3.5 Reading the plates: read the absorbance A570-A630 with the Infinite M200 microtiter plate reader. Calculate the inhibition ratio of the test compounds. 2.3.6 Secondary screening: the compounds whose inhibition ratio is greater than 50% at the concentrations of 10^−5 mol/L in the preliminary screening will be picked out for Secondary screening. Dilute these compounds to ten concentrations: 10^−5 mol/L, 0.5×10^−5 mol/L, 10^−6 mol/L, 0.8×10^−6 mol/L, 0.6×10^−6 mol/L, 0.4×10^−6 mol/L, 0.2×10^−6 mol/L, 10^−7 mol/L, 0.8×10^−7 mol/L and 0.4×10^−7 mol/L. Add 20 ul test compound solution to the 96 well plate and incubate for 48 hours. Each group has three parallel wells and all experiments repeat for three times. Read the plates and calculate the inhibition ratio according to the preliminary screening method. 2.3.7 Calculate the Inhibition Ratio of Cell Proliferation and the IC50
(§6) According to the inhibition ratio of cell proliferation at the different concentrations of the compound, inhibition ratio of 50% of the test compound is calculated through the logarithm of the concentration of the compound with the Logit [I] linear regression, and an average value of three times is taken as the measured value of a sample.

[2] = test system: Human Bladder Cancer Cell Line (T24); assay: Tumor cell proliferation assay (MTT), T24; conditions: for inhibition at 10 µM: concentration of 10^−5 mol/L, preliminary screening, 72 hours, read-out: Inhibition rate % T24; for pIC50: secondary screening, 48 hours
Description: as §1, §2
2.2.7 Human Bladder Cancer Cell Line (T24);
The cells of 2.2.6, 2.2.7 cultured in RPMI 1640 medium containing 12% fetal bovine serum in the condition of 37° C., 5% CO2.
as §3, §4, §5, §6

[3] = test system: Human Colon Cancer Cell Line (HT-29); assay: Tumor cell proliferation assay (MTT), HT29; conditions: for inhibition at 10 µM: concentration of 10^−5 mol/L, preliminary screening, 72 hours, read-out: Inhibition rate % HT29; for pIC50: secondary screening, 48 hours
Description: as §1, §2
2.2.11 Human Colon Cancer Cell Line (HT-29);
(§7) The cells of 2.2.11, 2.2.12, 2.2.13 were cultured in MC COYS 5-A medium containing 12% fetal bovine serum in the condition of 37° C., 5% CO2.
as §3, §4
as §5, with “2.3.6 Secondary screening: the compounds whose inhibition ratio is greater than 50% at the concentrations of 10^−5 mol/L in the preliminary screening will be picked out for Secondary screening.” left out
as §6

[4] = test system: Human Colon Cancer Cell Line (HCT 116); assay: Tumor cell proliferation assay (MTT), HCT116; conditions: concentration of 10^−5 mol/L, preliminary screening, 72 hours, read-out: Inhibition rate % HCT116
Description: as §1, §2
2.2.12 Human Colon Cancer Cell Line (HCT 116);
as §7, §3, §4, §5, §6

| Compound | inhibition at 10 µM [1] [%] | inhibition at 10 µM [2] [%] | inhibition at 10 µM [3] [%] | inhibition at 10 µM [4] [%] | pIC50 [1] | pIC50 [2] | pIC50 [3] |
| --- | --- | --- | --- | --- | --- | --- | --- |
| Cc1[nH]c2c(c1C(=O)NCCO)CCC/C2=C1/C(=O)Nc2ccccc21 [I-8, N-(2-hydroxyethyl)-2-methyl-7-[1,2-dihydro-2-oxo-3H-indol-(Z)-3-ylidene]-4,5,6,7-tetrahydro-1H-indole-3-carboxamide] | 47 | 64.6 | 84.8 | 79.1 |  |  |  |
| CCN(CC)CCNC(=O)c1c(C)[nH]c2c1CCC/C2=C1/C(=O)Nc2ccccc21 [I-5, N-(2-(diethylamino)ethyl)-2-methyl-7-[1,2-dihydro-2-oxo-3H-indol-(Z)-3-ylidene]-4,5,6,7-tetrahydro-1H-indole-3-carboxamide] | 64 | 74.5 | 91.5 | 99.9 | 5.17 | 5.45 | 6.27 |
| CCN(CC)CCNC(=O)c1c(C)[nH]c2c1CCC/C2=C1/C(=O)Nc2ccc(C)cc21 [I-4, N-(2-(diethylamino)ethyl)-2-methyl-7-[1,2-dihydro-5-methyl-2-oxo-3H-indol-(Z)-3-ylidene]-4,5,6,7-tetrahydro-1H-indole-3-carboxamide] |  |  | 89.9 |  |  |  |  |
| Cc1[nH]c2c(c1C(=O)NCC(O)CN1CCCCC1)CCC/C2=C1/C(=O)Nc2ccccc21 (stereo not drawn) [I-73, N-(2-hydroxy-3-(piperidin-1-yl)propyl)-2-methyl-7-[1,2-dihydro-2-oxo-3H-indol-(Z)-3-ylidene]-4,5,6,7-tetrahydro-1H-indole-3-carboxamide] | 48.8 | 88.4 | 95.6 | 98.7 | 4.99 | 5.23 | 6.19 |
| Cc1[nH]c2c(c1C(=O)NCC(O)CN1CCCC1)CCC/C2=C1/C(=O)Nc2ccccc21 (stereo not drawn) [I-70, N-(2-hydroxy-3-(pyrrolidin-1-yl)propyl)-2-methyl-7-[1,2-dihydro-2-oxo-3H-indol-(Z)-3-ylidene]-4,5,6,7-tetrahydro-1H-indole-3-carboxamide] | 84.8 |  | 94.7 |  | 5.83 |  | 6.03 |
| Cc1[nH]c2c(c1C(=O)NCCO)CCC/C2=C1/C(=O)Nc2ccc(F)cc21 [I-9, N-(2-hydroxyethyl)-2-methyl-7-[1,2-dihydro-5-fluoro-2-oxo-3H-indol-(Z)-3-ylidene]-4,5,6,7-tetrahydro-1H-indole-3-carboxamide] | 42.1 | 56.1 | 66.7 | 61.9 |  |  |  |
| Cc1[nH]c2c(c1C(=O)NCC(O)CN1CCOCC1)CCC/C2=C1/C(=O)Nc2ccc(F)cc21 (stereo not drawn) [I-68, N-(2-hydroxy-3-morpholinopropyl)-2-methyl-7-[1,2-dihydro-5-fluoro-2-oxo-3H-indol-(Z)-3-ylidene]-4,5,6,7-tetrahydro-1H-indole-3-carboxamide] | 55.4 |  | 31.3 |  | 5.12 |  |  |
| CCN(CC)CCNC(=O)c1c(C)[nH]c2c1CCC/C2=C1/C(=O)Nc2ccc(Cl)cc21 [I-3, N-(2-(diethylamino)ethyl)-2-methyl-7-[1,2-dihydro-5-chloro-2-oxo-3H-indol-(Z)-3-ylidene]-4,5,6,7-tetrahydro-1H-indole-3-carboxamide] | 78.1 | 98.1 | 65.1 |  | 5.69 | 5.74 | 5.19 |
| CCN(CC)CC(O)CNC(=O)c1c(C)[nH]c2c1CCC/C2=C1/C(=O)Nc2ccccc21 (stereo not drawn) [I-63, N-(3-(diethylamino)-2-hydroxypropyl)-2-methyl-7-[1,2-dihydro-2-oxo-3H-indol-(Z)-3-ylidene]-4,5,6,7-tetrahydro-1H-indole-3-carboxamide] | 80.8 | 99 | 92.7 |  | 5.73 | 5.52 | 5.99 |
| Cc1[nH]c2c(c1C(=O)NCCN(C)C)CCC/C2=C1/C(=O)Nc2ccc(F)cc21 [I-6, N-(2-(dimethylamino)ethyl)-2-methyl-7-[1,2-dihydro-5-fluoro-2-oxo-3H-indol-(Z)-3-ylidene]-4,5,6,7-tetrahydro-1H-indole-3-carboxamide] | 32.3 |  | 61.9 |  |  |  | 5.36 |
| Cc1[nH]c2c(c1C(=O)NCC(O)CN1CCCC1)CCC/C2=C1/C(=O)Nc2ccc(F)cc21 (stereo not drawn) [I-71, N-(2-hydroxy-3-(pyrrolidin-1-yl)propyl)-2-methyl-7-[1,2-dihydro-5-fluoro-2-oxo-3H-indol-(Z)-3-ylidene]-4,5,6,7-tetrahydro-1H-indole-3-carboxamide] | 82.3 |  | 95 |  | 5.85 |  | 6.10 |
| Cc1[nH]c2c(c1C(=O)NCC(O)CN1CCN(C)CC1)CCC/C2=C1/C(=O)Nc2ccc(F)cc21 (stereo not drawn) [I-77, N-[2-hydroxy-3-(4-methylpiperazin-1-yl)propyl]-2-methyl-7-[1,2-dihydro-5-fluoro-2-oxo-3H-indol-(Z)-3-ylidene]-4,5,6,7-tetrahydro-1H-indole-3-carboxamide] | 84.2 |  | 74.4 |  | 5.46 |  | 5.08 |
| Cc1[nH]c2c(c1C(=O)NCCCN(C)C)CCC/C2=C1/C(=O)Nc2ccc(Cl)cc21 [I-7, N-(3-(dimethylamino)propyl)-2-methyl-7-[1,2-dihydro-5-chloro-2-oxo-3H-indol-(Z)-3-ylidene]-4,5,6,7-tetrahydro-1H-indole-3-carboxamide] | 75.9 |  | 78.4 |  | 5.56 |  | 5.51 |
